Experimental data as given in patent US5994363A (priority 1998, dated 1999).
Where “and” joins values, the source holds several entries; their conditions need not be identical. Equal values may be shown once. Where a name gives a salt, the structure may show the parent alone.

Legend:
[1] = Number of dogs acclimatized to retching/vomiting; blood pressure and heart rate (Example 2); format: in vivo, dog
Experimental: This study provides a different view of data recorded in Example 1.
Observations were made at three different dosage levels, 0.04, 0.1 and 0.4 mg/kg/day. No dose escalation was attempted in this study. A group of five dogs was used for tests at each dosage level. The number of dogs in each dosage group with a retching or vomiting episode in each post-administration time period was recorded for daily administration over about 180 days. Ten day averages were calculated and plotted (see FIGS. 3 through 6).
The blood pressure and heart rates of an untreated group of dogs was evaluated for comparison purposes.

[2] = Adverse events in escalating dose tolerance study in psychogenic male erectile dysfunction (Example 5); format: in vivo, human
Experimental: Example 5-Summary. This clinical study was conducted in three phases. In Phase 1 subjects were selected from among patients complaining of impotence by a thorough physiological and psychological assessment. For example, one step in the assessment process required candidates to undergo Rigiscan measurement of penile rigidity and circumference following administration of a placebo tablet in single blind fashion. Phase 2 consisted of a dose escalation (4, 6, and 8 mg tablets) administered on 4 visits. An out-patient phase was conducted as Phase 3. Patients were given apomorphine HCL tablets to use at home.
Example-5 Detailed Description (Clinical Study #94-03-01). The human study was conducted in three separate phases. Phase 1 consisted of selecting appropriate subjects and obtaining baseline information on sexual performance for each subject.
They were tested on four separate days at four separate doses (placebo and three active medication doses) with an interval of no less than six days between visits (i.e., one visit per week).
If the trial was aborted, the patient was given the choice of having Gravol 50 mg p.o. (an anti-emetic) administered at that time or enduring the adverse events as they arose. In either event, the patient was monitored by the research clinician until all side-effects had subsided. The patient was asked to return the following week for the next scheduled dose.
(§1) During the five-week, home-use phase, subjects were to attempt coitus at least once each week after taking a single APO tablet. After each attempt, the subject and their partner completed a Sexual Function questionnaire (See FIGS. 15 and 16) which was later evaluated and used for final statistical analysis.
The data was analyzed by an inspection of the reported adverse events, the given dose of apomorphine and the phase of the study, i.e., in-patient (dose escalating) or take-home (constant dose) phases.

[3] = Take-home sexual intercourse success rate (Example 5, Phase III); format: in vivo, human
Excerpt: as §1
(§2) For the third phase, subjects had recorded at baseline, their satisfaction,erection, number of attempts, and successful intercourse on a VAS scale (see Tables Xa-Xc, above). Evaluateable subjects first recorded a success rate, then completed VAS for erection results and satisfaction with intercourse following take-home treatment. The success rates, as shown in Tables XVa-XVb, below, were calculated for milligrams of APO as well as for micrograms per kilogram of the patient's body weight doses (males). There were four criteria for recording a success in the take-home phase. […] Several evaluations of the data were made including the male and female responses to treatments via questionnaires (see FIGS. 15 and 16).

[4] = Take-home erection results, VAS questionnaire question 1 (Example 5, Phase III); format: in vivo, human; conditions: for Erection Results (Maximum) Percent Change from Baseline, LSMEAN: all sites; for Erection Results (Maximum) Percent Change from Baseline, MEAN: all doses, site #1, #2, #3, #4, listed as APO
Excerpt: as §1, §2
(§3) Tables XVIIa--XVIId, below, show the statistical results of phase III with respect to Rigiscan™ results (a and b) and intercourse satisfaction (c and d) based on question 1 and question 3, respectively, from the completed questionnaires (see FIGS. 15 and 16). […] The maximum improvement from baseline were 56% in males and 59% in females. The mean improvement were 29% in males and 34% in females. […] The mean improvements were 34% in females and 45% in males.

[5] = Take-home intercourse satisfaction, VAS questionnaire question 3 (Example 5, Phase III); format: in vivo, human; conditions: for Satisfaction Percent Change from Baseline, LSMEAN / Satisfaction Percent Change from Baseline, MEAN: MALE
Excerpt: as §1, §2, §3

[6] = mouse, cited from earlier work
[7] = 100-400 μg/kg, up to four days, primates; cited from earlier work
[8] = single bolus subcutaneous injection, mammals; cited from earlier work
[9] = Side effects after subcutaneous, sublingual and oral apomorphine HCl in dog (Example 3)

CN1CCc2cccc3c2[C@H]1Cc1ccc(O)c(O)c1-3 [apomorphine HCl]
daily treatment needed for 80 percent effective acclimation ([1]; 0.4 mg/kg/day s.c.): about 3 months
net changes in blood pressure ([1]; after 5 months chronic treatment, vs untreated controls): not significantly different from the controls
heart rate after administration ([1]; after 5 months chronic treatment, 0.04, 0.1, 0.4 mg/kg/day): tachycardia sometimes occurs
bradycardia ([1]; initially, lost by acclimation): badycardia was reported in some subjects
Total Number of Adverse Events ([2]; Phase 2 (dose escalation), 4 mg/week): 31
Total Number of Adverse Events ([2]; Phase 2 (dose escalation), 6 mg/week): 58
Total Number of Adverse Events ([2]; Phase 2 (dose escalation), 8 mg/week): 50
Total Number of Adverse Events ([2]; Phase 3 (out-patient), 4 mg): 15
Total Number of Adverse Events ([2]; Phase 3 (out-patient), 6 mg): 13
Total Number of Adverse Events ([2]; Phase 3 (out-patient), 8 mg): 8
overall incidence of nausea ([2]; all administered doses): less than 13%
severe nausea cases ([2]; all doses): two
hypotension ([2]; also bradycardia, dizziness, syncope, pallor reported): reported as an adverse event in some subjects
Anti-Emetic In Patient, Total ([2]; in vivo): 8
Anti-Emetic Take Home, Total ([2]; in vivo): 2
In-Patient A.E.'s, Total ([2]; in vivo): 109
Take-Home A.E.'s, Total ([2]; in vivo): 25
decrease in adverse events per tablet ([2]; in vivo): ~95.6%
frequency of side effects ([2]; in vivo): 94.2%
incidence of vomiting ([2]; in vivo): less than 3%
increased sweating and fatigue ([2]; in vivo): also reported
severe hypotension and pallor ([2]; in vivo): Only single cases
severe increased sweating ([2]; in vivo): One of the cases
Sexual Intercourse Success Rate ([3]; Female, 6 mg, listed as APO): 73.3% and 73%
Sexual Intercourse Success Rate ([3]; Female, 35-50 μg/kg): 60.0%
Sexual Intercourse Success Rate ([3]; Female, 50-74 μg/kg, listed as APO): 82%
Sexual Intercourse Success Rate ([3]; Female, Overall): 70.0%
Sexual Intercourse Success Rate ([3]; Male, 6 mg, listed as APO): 73.3% and 73%
Sexual Intercourse Success Rate ([3]; Male, 35-50 μg/kg): 80.0%
Sexual Intercourse Success Rate ([3]; Male, 50-74 μg/kg, listed as APO): 73%
Sexual Intercourse Success Rate ([3]; Male, Overall): 70.0%
overall success rate ([3]; whole study, baseline rate 28%, listed as APO): 70% and 72%
Erection Results (Maximum) Percent Change from Baseline, LSMEAN ([4]; FEMALE, 4 mg): 33.57%
Erection Results (Maximum) Percent Change from Baseline, LSMEAN ([4]; FEMALE, 6 mg): 45.00%
Erection Results (Maximum) Percent Change from Baseline, LSMEAN ([4]; FEMALE, 8 mg): 59.00%
Erection Results (Maximum) Percent Change from Baseline, MEAN ([4]; FEMALE): 52.56% and 41.25% and 46.50% and 36.29%
Erection Results (Maximum) Percent Change from Baseline, LSMEAN ([4]; MALE, 4 mg): 55.71%
Erection Results (Maximum) Percent Change from Baseline, LSMEAN ([4]; MALE, 6 mg): 42.80%
Erection Results (Maximum) Percent Change from Baseline, LSMEAN ([4]; MALE, 8 mg): 31.86%
Erection Results (Maximum) Percent Change from Baseline, MEAN ([4]; MALE): 52.22% and 57.00% and 36.22% and 33.00%
erection rigidity, mean improvement ([4]; females): 34%
erection rigidity, maximum improvement from baseline ([4]; females (best at 8 mg)): 59%
erection rigidity, mean improvement ([4]; males): 29%
erection rigidity, maximum improvement from baseline ([4]; males (best at 4 mg)): 56%
Satisfaction (Maximum) Change from Baseline, LSMEAN ([5]; FEMALE, 4 mg, all sites): 41.86
Satisfaction (Maximum) Change from Baseline, LSMEAN ([5]; FEMALE, 6 mg, all sites): 40.60
Satisfaction (Maximum) Change from Baseline, LSMEAN ([5]; FEMALE, 8 mg, all sites): 62.33
Satisfaction (Maximum) Change from Baseline, MEAN ([5]; FEMALE, all doses, site #1, #2, #3, #4, listed as APO): 57.00 and 37.75 and 33.29
Satisfaction Percent Change from Baseline, LSMEAN ([5]; 4 mg, all sites): 49.14%
Satisfaction Percent Change from Baseline, LSMEAN ([5]; 6 mg, all sites): 51.47%
Satisfaction Percent Change from Baseline, MEAN ([5]; 6 mg, all sites, site #1, #2, #3, #4, listed as APO): 51.47% and 40.60% and 59.50% and 54.50% and 58.00%
Satisfaction Percent Change from Baseline, LSMEAN ([5]; 8 mg, all sites): 56.57%
Satisfaction Percent Change from Baseline, MEAN ([5]; all doses, b893 site #1, b897 #2, b901 #3, b905 #4, listed as APO): 58.00% and 48.50% and 49.56% and 50.00%
VAS satisfaction, mean improvement ([5]; females): 34%
VAS satisfaction, maximum improvement from baseline ([5]; females, 8 mg): 62%
VAS satisfaction, mean improvement ([5]; males): 45%
VAS satisfaction, maximum improvement from baseline ([5]; males, 8 mg): 57%
lethality at or above about 13 mg/kg ([6]; single bolus subcutaneous): reported lethal
LD50 [6]: > 50 mg/kg
adverse effects of multiple doses [7]: without major adverse effects
tolerated dose [8]: up to 13 mg/kg
Average Severity ([9]; oral 0.2 mg/kg): 0.00%
number of animals having nausea/vomiting ([9]; oral 0.2 mg/kg, 8 min, 4 animals per group): 0
number of animals having nausea/vomiting ([9]; oral 0.2 mg/kg, 15 min): 0
number of animals having nausea/vomiting ([9]; oral 0.2 mg/kg, 30 min): 0
Average Severity ([9]; subcutaneous 0.04 mg/kg): 150.00%
number of animals having nausea/vomiting ([9]; subcutaneous 0.04 mg/kg, 8 min, 4 animals per group): 4
number of animals having nausea/vomiting ([9]; subcutaneous 0.04 mg/kg, 15 min): 2
number of animals having nausea/vomiting ([9]; subcutaneous 0.04 mg/kg, 30 min): 0
Average Severity ([9]; sublingual 0.2 mg/kg): 50.00%
number of animals having nausea/vomiting ([9]; sublingual 0.2 mg/kg, 8 min, 4 animals per group): 0
number of animals having nausea/vomiting ([9]; sublingual 0.2 mg/kg, 15 min): 1
number of animals having nausea/vomiting ([9]; sublingual 0.2 mg/kg, 30 min): 1
